Reference: patent US8507440B2, “Protein kinase C peptides for use in withdrawal” (The Board of Trustees of the Leland Stanford Junior …, priority 2002, dated 2013)
Read-outs that look alike come from different tables or passages of the source.

Key:
[1] = for maximal blood EtOH concentration: 30 minutes post 4 g/kg 15% EtOH; for maximal EtOH concentration in spinal cord: 4 g/kg 15% EtOH
γPKC [2] = test system: γPKC
Procedure: (§1) To determine if EtOH alters the expression and cellular localization of εPKC and γPKC, immunohistochemistry was performed on L4/5 dorsal root ganglion (DRG) and L4/5 lumbar spinal cord sections, as described in Example 4. Rat at postnatal days 7 and 21, treated with saline or 4 g/kg 15% EtOH, were euthanized at 2, 4, or 6 hours post injection for isolation of the lumbar spinal cords.
(§2) Animals administered a single dose of 4 g/kg 15% EtOH or saline (i.p.) were deeply anesthetized with halothane and euthanized at 2, 4, or 6 hours post injection by transcardiac perfusion (phosphate-buffered saline wash, followed by 4% formaldehyde in PBS, pH 7.4). Following perfusion, lumbar spinal cord and L4/L5 dorsal root ganglia (DRG) were isolated and post-fixed for 3 hours in 4% formaldehyde solution followed by cryoprotection in 30% sucrose/PBS at 4° C. Sections were freeze-mounted in OCT-embedding medium on cork blocks and stored at −80° C. until analysis. For spinal cord sections, free-floating immunohistochemistry was performed on 30 μm L4-L5 spinal sections. Dorsal root ganglia were cut on a cryostat at 10 μm and slide mounted. Slides were heated overnight at 32° C. Immunohistochemistry was performed utilizing an avidin-biotin complex (ABC) technique as previously described (Sweitzer et al., Brain Res., 829(1-2):209-221 (1999)). Rabbit polyclonal antibodies to γPKC (1:500 from Santa Cruz) or εPKC (1:1,000 from Santa Cruz) were used. Immunohistochemistry was scored blinded to experimental conditions.
(§3) For both spinal cord tissues and DRG, densitometry using ImageJ software was performed on at least three sections from each of three individual animals.

εPKC = test system: εPKC
Procedure: as §1, §2, §3

γPKC [3] = molecular target: T1, γPKC (Rattus norvegicus, UniProt P63319); format: cell-based; conditions: after application of ethanol 100 mM; control about 14
T1 construct: from tissue; host or cells: lumbar spinal cord slices of postnatal day 7-10 Sprague-Dawley rats
Procedure: Fluorescence immunocytochemical studies were performed on the spinal cord sections, as described in Example 3. The sections were incubated with an anti-γPKC antibody and an anti-neuronal antibody to identify neurons. […] Translocation of γPKC was quantified by counting the number of cells with γPKC localized to the nucleus before (control) and after application of ethanol, as well as after washing with artificial cerebrospinal fluid. […] Two to three sections per animal were counted.
Fluorescence immunocytochemical studies were performed on spinal cord sections […] from control slices (perfused with ACSF for 70 minutes) and EtOH treated slices (perfused with ACSF for 30 minutes followed by 20 min 100 mM EtOH and 20 min wash with ACSF). The sections were incubated with a rabbit anti-PKCg polyclonal antibody (1:500) overnight at 4° C. In some cord sections, a mouse anti-neuronal nuclei monoclonal antibody (NeuN, 1:750) was added to identify neurons. After several washes with ACSF, the sections were labeled for 2 hours at room temperature with fluorescein-labeled secondary antibodies (1:500). Double immunofluorescence was assessed with a laser confocal microscope.

in vivo = conditions: rat, 4 g/kg
[4] = test system: 7 day old and 21 day old rats; assay: ethanol withdrawal thermal hyperalgesia testing (paw withdrawal latency); format: in vivo, rat; conditions: 4 g/kg 15% EtOH
[5] = test system: N-methyl-D-aspartate (NMDA) receptor currents; assay: alcohol withdrawal hyperresponsiveness of NMDA-evoked currents in lumbar spinal cord slice motor neurons; format: cell-based, rat; conditions: 100 mM EtOH, n=11 motor neurons
Excerpt: Spinal cords were taken from young rats, and slices of these cords were made and placed in artificial cerebrospinal fluid for patch clamp electrophysiological analysis, to characterize the ability of γPKC peptides to mediate alcohol withdrawal hyperresponsiveness of N-methyl-D-aspartate (NMDA) receptor currents. FIG. 7A is a schematic diagram of the technique, where a lumbar spinal cord slice 10 is shown. The placement of a recording electrode 12 and a pipette 14 for application of NMDA relative to a motor neuron 16 is illustrated.
Sprague-Dawley rats at postnatal day 7-10 were anesthetized with halothane, decapitated, and the spinal cords were quickly removed. Slices […] thick were sectioned from the lumbar region. Whole cell voltage clamp recordings were made from visually-identified motor neurons using infrared video microscopy, a 60× water immersion lens, and a MultiClamp 700A patch clamp amplifier. Cells were held at a holding potential of −60 mV in artificial cerebrospinal fluid (ACSF) containing bicuculline methiodide ([…]), strychnine ([…]), and tetrodotoxin ([…]). Postsynaptic currents were evoked by direct pressure application of 2 mM N-methyl-D-aspartate (NMDA) from a pipette positioned near the recorded cell at 1-2 min intervals, as illustrated in FIG. 7A. The area of evoked currents during and following 100 mM ethanol (EtOH) application was measured and normalized to the average baseline current area during the 10 minutes preceding EtOH application. Data are expressed as mean +/−SEM: Statistical significance was determined by one-way ANOVA followed by Dunn's or Tukey's multiple comparison test with significance set at p<0.05.

[6] = test system: 7 day old and 21 day old rats; assay: ethanol withdrawal mechanical allodynia testing (von Frey threshold withdrawal force); format: in vivo, rat
[7] = 21 day old rats, 4 g/kg and 0.5 g/kg 15% EtOH

CCO [EtOH, ethanol]
time of peak spinal cord EtOH level ([1]; 7 day old and 21 day old rats, post injection): 30 min | maximal blood EtOH concentration ([1]; 7 day old pups): 5.91 ± 0.46 µg/mL | maximal EtOH concentration in spinal cord ([1]; 7 day old rats): 14.8 μg/mg tissue | maximal EtOH concentration in spinal cord ([1]; 21 day old rats): 11.4 μg/mg tissue | maximal blood EtOH concentration ([1]; 21 day old rats): 5.67 ± 0.60 µg/mL | time of peak blood EtOH concentration ([1]; both 7 day old and 21 day old rats, post-ethanol injection): 30 min | spinal cord later-phase half-life relative to half life for blood EtOH levels ([1]; rat, in vivo): 50% | γPKC cellular localization (γPKC [2]; 2 hours post-EtOH injection): had translocated to the plasma membrane | number of somata staining positive for γPKC above saline control levels (γPKC [2]; 7 day old rats, lamina II, 6 hours post injection of 4 g/kg 15% EtOH): 4 fold | γPKC staining intensity (γPKC [2]; 21 day old rats, 2 to 6 hours post-EtOH injection): γPKC staining intensity increased | cells staining positive for εPKC (εPKC; 7 day old rats, 2 hour exposure to 4 g/kg 15% EtOH): the percentage of cells staining positive for εPKC increased | cells staining positive for εPKC and staining intensity (εPKC; 21 day old rats, 4 g/kg 15% EtOH): did not result in an increase in the number of positive staining cells or in the staining intensity within positively stained cells | number of cells having γPKC localized in the nucleus (γPKC [3]): about 6 | half-life (in vivo; spinal cord, ip, T ½ Early, 7 day old rat, 4 g/kg 15% EtOH i.p.): 96 min | half-life (in vivo; spinal cord, ip, T ½ Early, 21 day old rat, 4 g/kg 15% EtOH i.p.): 90 min | half-life (in vivo; spinal cord, ip, T ½ Late, 7 day old rat, 4 g/kg 15% EtOH i.p.): 690 min | half-life (in vivo; spinal cord, ip, T ½ Late, 21 day old rat, 4 g/kg 15% EtOH i.p.): 702 min | half-life (in vivo; whole blood, intraperitoneal, extension of blood late phase half-life of 21 day old beyond 7 day old rats, blood): 240 min | half-life (in vivo; whole blood, ip, T ½ Early, Blood, 7 day old rat, 4 g/kg 15% EtOH i.p.): 114 min | half-life (in vivo; whole blood, ip, T ½ Early, Blood, 21 day old rat, 4 g/kg 15% EtOH i.p.): 102 min | half-life (in vivo; whole blood, ip, T ½ Late, Blood, 7 day old rat, 4 g/kg 15% EtOH i.p.): 1090 min | half-life (in vivo; whole blood, ip, T ½ Late, Blood, 21 day old rat, 4 g/kg 15% EtOH i.p.): 1350 min | thermal paw withdrawal latency after ethanol ([4]; 7 day old rats, 6 hours): Thermal hyperalgesia as evidenced by a decrease in paw withdrawal latency, was observed | thermal paw withdrawal latency after ethanol ([4]; 21 day old rats, entire time period): did not exhibit a decrease in paw withdrawal latency | normalized NMDA current (INMDA) area after application of alcohol [5]: increases | threshold withdrawal force after ethanol ([6]; 7 day old rats, 1 g/kg 15% EtOH): did not significantly alter the threshold withdrawal force | paw threshold withdrawal force after ethanol ([6]; 7 day old rats, 4 g/kg 15% EtOH, 6 hours and 8 hours post injection): exhibited mechanical allodynia | threshold withdrawal force after ethanol ([6]; 7 day old rats, 4 g/kg 15% EtOH, two hour test interval): slight but insignificant increase in threshold withdrawal force | mechanical thresholds after ethanol [6, 7]: maximally decreased mechanical thresholds at 6 hours post EtOH injection | time withdrawal thresholds remained below baseline [6, 7]: up to 72 hours
